In ChEMBL document CHEMBL1201862, “PubChem BioAssay data set” (2004):
Activity calls are given as the source filed them.

Key:
Cytochrome P450 3A4 = Cytochrome P450 3A4 (Homo sapiens, UniProt P08684); details: Potency;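 note: confirmatory qHTS run detecting inhibitors and substrates of CYP3A4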
Leucine aminopeptidase = target: T1, Leucine aminopeptidase (Plasmodium falciparum 3D7, UniProt Q8IL11); assay: P. falciparum M17LAP inhibitors, primary screen, biochemical, fluorogenic H-Leu-NHMec substrate, 1536-well (AID 1619); format: functional
T1 sequence (Q8IL11 whole entry): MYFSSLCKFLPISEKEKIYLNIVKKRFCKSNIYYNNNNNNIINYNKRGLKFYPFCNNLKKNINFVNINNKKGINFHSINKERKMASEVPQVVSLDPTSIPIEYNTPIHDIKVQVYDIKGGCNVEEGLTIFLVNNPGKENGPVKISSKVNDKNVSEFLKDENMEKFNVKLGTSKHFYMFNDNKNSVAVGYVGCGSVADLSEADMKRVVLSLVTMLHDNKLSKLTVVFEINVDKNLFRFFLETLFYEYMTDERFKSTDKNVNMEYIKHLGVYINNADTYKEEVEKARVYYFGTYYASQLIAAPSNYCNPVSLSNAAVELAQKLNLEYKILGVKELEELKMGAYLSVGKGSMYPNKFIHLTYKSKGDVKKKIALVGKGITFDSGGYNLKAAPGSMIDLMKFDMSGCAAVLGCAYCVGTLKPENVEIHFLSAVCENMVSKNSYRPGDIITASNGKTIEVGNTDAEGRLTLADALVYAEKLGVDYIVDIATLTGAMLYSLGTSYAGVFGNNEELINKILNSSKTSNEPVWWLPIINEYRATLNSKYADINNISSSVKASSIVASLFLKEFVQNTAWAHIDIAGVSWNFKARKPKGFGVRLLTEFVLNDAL

Aminopeptidase N = target: T2, Aminopeptidase N (Plasmodium falciparum FcB1/Columbia, UniProt O96935); assay: P. falciparum M1AAP inhibitors, biochemical, fluorogenic H-Leu-NHMec substrate, 1536-well (AID 1445); parameters: species or system Plasmodium falciparum 3D7, 3D7
T2 sequence (O96935 whole entry): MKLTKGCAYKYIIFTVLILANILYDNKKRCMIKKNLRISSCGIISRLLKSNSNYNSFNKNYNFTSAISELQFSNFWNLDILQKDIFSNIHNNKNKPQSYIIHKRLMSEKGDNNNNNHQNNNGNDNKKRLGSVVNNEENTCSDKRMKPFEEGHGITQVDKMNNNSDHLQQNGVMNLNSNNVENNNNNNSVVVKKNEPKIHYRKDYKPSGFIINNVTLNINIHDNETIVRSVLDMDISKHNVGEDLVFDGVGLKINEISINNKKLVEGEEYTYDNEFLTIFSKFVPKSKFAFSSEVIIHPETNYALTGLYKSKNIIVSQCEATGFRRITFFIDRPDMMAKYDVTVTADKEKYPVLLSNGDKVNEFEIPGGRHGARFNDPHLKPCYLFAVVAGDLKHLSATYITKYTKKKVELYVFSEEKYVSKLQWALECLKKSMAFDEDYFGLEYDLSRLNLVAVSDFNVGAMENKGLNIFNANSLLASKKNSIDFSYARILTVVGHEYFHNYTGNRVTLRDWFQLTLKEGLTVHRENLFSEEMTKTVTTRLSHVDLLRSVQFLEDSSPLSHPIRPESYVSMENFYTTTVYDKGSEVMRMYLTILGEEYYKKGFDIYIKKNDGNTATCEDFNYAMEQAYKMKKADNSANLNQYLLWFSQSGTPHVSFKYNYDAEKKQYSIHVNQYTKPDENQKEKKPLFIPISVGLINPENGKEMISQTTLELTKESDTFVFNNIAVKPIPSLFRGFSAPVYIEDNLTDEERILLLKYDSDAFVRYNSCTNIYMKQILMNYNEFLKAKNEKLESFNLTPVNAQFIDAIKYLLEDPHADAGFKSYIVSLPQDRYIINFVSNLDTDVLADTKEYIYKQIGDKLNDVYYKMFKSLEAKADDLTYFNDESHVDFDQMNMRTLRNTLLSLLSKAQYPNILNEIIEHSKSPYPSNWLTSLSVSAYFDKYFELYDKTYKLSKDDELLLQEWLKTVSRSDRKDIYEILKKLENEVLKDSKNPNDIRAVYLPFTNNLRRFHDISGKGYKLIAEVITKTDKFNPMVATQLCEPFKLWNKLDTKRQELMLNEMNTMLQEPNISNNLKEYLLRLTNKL

[1] = target: Voltage-dependent T-type calcium channel subunit alpha-1H (Homo sapiens, UniProt O95180); format: functional;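 note: channel activity triggered by adding a high calcium stimulation buffer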
Voltage-dependent T-type calcium channel subunit alpha-1H, sequence (O95180 whole entry): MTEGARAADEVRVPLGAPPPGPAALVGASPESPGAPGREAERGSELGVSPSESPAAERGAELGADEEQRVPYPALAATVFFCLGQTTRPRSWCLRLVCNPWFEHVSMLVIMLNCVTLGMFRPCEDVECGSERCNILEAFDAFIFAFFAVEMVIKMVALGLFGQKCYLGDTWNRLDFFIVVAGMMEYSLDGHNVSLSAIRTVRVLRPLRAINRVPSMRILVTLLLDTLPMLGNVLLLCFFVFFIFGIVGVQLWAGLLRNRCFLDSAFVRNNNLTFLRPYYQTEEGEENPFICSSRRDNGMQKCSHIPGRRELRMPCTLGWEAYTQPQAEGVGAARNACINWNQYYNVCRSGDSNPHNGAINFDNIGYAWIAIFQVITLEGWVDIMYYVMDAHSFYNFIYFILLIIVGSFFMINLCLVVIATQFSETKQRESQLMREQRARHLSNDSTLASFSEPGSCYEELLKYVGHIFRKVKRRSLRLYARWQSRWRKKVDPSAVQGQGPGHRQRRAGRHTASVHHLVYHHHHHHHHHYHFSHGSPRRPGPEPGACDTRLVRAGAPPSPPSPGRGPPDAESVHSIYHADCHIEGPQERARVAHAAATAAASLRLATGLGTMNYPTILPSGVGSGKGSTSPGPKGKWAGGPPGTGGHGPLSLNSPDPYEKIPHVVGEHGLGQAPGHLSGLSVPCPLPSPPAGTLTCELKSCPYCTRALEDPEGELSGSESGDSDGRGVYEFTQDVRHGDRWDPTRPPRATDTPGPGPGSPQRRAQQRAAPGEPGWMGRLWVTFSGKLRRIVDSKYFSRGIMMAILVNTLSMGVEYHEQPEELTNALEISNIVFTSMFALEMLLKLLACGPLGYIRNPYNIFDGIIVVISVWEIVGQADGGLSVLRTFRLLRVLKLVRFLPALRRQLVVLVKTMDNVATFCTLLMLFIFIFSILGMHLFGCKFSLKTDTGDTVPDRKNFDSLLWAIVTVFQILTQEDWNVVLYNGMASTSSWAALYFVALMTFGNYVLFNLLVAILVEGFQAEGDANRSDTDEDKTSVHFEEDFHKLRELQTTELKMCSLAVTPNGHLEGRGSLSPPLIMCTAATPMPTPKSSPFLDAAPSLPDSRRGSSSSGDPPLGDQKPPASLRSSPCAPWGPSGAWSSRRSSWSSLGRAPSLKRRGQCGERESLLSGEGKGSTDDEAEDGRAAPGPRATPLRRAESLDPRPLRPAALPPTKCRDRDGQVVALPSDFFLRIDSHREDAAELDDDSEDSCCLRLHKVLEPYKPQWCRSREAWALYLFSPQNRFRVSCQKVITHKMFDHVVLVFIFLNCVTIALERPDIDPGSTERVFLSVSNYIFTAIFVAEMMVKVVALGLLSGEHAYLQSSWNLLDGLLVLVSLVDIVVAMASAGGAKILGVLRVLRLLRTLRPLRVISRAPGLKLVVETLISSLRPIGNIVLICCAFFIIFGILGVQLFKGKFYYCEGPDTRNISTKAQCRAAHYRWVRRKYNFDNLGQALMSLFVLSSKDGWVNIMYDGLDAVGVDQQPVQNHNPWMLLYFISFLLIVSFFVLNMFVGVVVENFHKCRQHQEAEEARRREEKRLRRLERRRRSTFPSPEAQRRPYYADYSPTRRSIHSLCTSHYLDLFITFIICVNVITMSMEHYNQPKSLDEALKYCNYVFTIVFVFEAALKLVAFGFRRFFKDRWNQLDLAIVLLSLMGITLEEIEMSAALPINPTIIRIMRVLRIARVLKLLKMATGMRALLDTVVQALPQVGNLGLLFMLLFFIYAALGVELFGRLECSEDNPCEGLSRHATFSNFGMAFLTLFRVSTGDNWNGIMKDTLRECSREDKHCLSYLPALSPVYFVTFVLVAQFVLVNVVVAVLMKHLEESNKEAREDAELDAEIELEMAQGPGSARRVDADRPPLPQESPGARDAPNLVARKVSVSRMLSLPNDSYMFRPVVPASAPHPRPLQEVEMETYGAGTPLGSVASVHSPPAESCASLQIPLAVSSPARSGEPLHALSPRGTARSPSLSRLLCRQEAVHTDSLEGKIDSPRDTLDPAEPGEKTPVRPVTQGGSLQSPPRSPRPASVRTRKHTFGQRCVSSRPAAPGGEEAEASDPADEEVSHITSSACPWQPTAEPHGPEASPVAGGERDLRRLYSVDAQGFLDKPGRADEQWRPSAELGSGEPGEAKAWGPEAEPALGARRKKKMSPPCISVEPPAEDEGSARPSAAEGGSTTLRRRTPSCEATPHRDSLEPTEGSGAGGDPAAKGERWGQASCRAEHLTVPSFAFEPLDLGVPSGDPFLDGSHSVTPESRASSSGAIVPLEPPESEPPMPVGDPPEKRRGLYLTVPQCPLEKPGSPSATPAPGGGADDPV

[2] = target: T3, Heat shock factor protein 1 (Mus musculus, UniProt P38532); assay: HSF1 potentiators in luciferase reporter cells, confirmation, cell-based, NIH3T3, luminescence, dose retest (AID 435004); format: functional;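 note: stress induced by proteasome inhibitor MG132 added 30 min after compound; luciferase reporter driven by HSF1 response element in NIH3T3 cells; actives raise luminescence as potentiators of the MG132 stress response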
T3 sequence (P38532 whole entry): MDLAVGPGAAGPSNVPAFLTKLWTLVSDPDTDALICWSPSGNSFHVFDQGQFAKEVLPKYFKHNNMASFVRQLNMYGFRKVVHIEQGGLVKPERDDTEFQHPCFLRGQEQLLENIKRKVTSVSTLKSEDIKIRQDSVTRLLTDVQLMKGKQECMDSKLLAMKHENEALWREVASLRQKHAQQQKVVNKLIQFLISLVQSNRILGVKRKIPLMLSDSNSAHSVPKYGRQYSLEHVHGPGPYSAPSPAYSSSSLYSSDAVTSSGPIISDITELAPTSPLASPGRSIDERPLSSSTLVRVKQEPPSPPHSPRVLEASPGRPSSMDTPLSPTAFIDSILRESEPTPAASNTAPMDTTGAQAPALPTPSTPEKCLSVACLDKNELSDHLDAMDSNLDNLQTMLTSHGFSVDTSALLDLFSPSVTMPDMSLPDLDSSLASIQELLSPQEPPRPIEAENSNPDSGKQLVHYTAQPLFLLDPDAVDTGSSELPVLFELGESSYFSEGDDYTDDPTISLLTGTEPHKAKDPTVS

cells = format: functional
[3] = Luminescence Cell-Based Dose Confirmation HTS to Identify Inhibitors of Platelet Dense Granule Release. [Related pubchem assays: 1663 (Primary HTS), 1678 (Summary of Project)]; format: functional
[4] = target: Luciferin 4-monooxygenase (Photinus pyralis, UniProt P08659); assay: firefly luciferase enzyme inhibitors, dose response, biochemical, luminescence (AID 1891)
Luciferin 4-monooxygenase, sequence (P08659 whole entry): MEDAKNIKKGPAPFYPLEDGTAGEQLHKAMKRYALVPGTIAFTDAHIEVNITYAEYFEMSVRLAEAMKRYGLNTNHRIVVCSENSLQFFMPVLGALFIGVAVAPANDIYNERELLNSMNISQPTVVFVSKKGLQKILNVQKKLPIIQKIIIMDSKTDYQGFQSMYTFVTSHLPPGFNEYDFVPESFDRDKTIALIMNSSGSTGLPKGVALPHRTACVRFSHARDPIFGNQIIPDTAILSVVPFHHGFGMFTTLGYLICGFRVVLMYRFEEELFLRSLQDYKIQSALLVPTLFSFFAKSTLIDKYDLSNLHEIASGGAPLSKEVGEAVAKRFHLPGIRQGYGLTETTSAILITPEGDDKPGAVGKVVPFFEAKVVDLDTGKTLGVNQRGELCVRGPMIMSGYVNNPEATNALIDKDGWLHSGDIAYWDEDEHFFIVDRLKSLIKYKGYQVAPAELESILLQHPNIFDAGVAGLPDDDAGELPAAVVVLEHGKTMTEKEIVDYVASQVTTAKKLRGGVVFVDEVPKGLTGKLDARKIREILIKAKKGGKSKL

[5] = inhibitors of intracellular T. cruzi replication, confirmation, NIH3T3 host cells, beta-gal luminescence (AID 2044); format: functional, cell-based;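 note: intracellular parasites grown in NIH/3T3 mouse fibroblasts as host cells; luminescent beta-galactosidase reporter signal from transgenic T. cruzi replicating inside host cells; inhibitors lower the luminescence signal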
[6] = cytotoxicity toward NIH3T3 fibroblasts, dose response, counter-screen, cell-based, ATP luminescence, mouse fibroblasts (AID 2010); format: functional;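 note: cells exposed to compound for about 90 hours before reading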
[7] = Luminescence Cell-Based Dose Response HTS to Identify Activators of Luciferase Translation or Activity in H4 […] Cells. [Related pubchem assays: 1829 (Project Summary), 1814 (Primary HTS)]; format: functional
H4 = assay: Luminescence Cell-Based Dose Response HTS to Identify Activators of 5'UTR Stem-Loop Driven Prion Protein mRNA Translation in H4 Neuroglioblastoma Cells. [Related pubchem assays: 1829 (Project Summary), 1814 (Primary HTS)]; format: functional; details: Homo sapiens
[8] = target: T4, Ubiquitin-conjugating enzyme E2 N (Homo sapiens, UniProt P61088); format: functional;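 note: Dose-response confirmation in a TR-FRET assay detecting UBC13-driven polyubiquitin chain formation, inhibition measured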
T4 sequence (P61088 whole entry): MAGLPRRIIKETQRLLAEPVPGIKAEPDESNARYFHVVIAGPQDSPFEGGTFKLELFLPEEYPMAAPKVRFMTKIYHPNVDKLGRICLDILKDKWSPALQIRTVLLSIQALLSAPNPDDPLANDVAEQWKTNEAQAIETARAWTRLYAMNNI

Streptococcus = assay: Group A Streptococcus viability loss, dose response, counter-screen for streptokinase expression inhibitor project, luminescence, BacTiterGlo (AID 1915); format: functional, organism-based;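 note: potency for reduction of bacterial viability or growth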
[9] = test system: Streptococcus sp. 'group A'; assay: growth inhibition of control SK(-) GAS strain, dose response, counter-screen for streptokinase expression inhibitor project, luminescence, kanamycin, BacTiterGlo, confirmation (AID 1900); format: functional, organism-based
Streptokinase A = target: T5, Streptokinase A (Streptococcus pyogenes serotype M1, UniProt P10520); assay: S. pyogenes streptokinase expression inhibitors, potency, dose response, plasminogen activation absorbance, OD405 (AID 1914); format: functional, Streptococcus pyogenes M1 GAS;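 note: secreted streptokinase activity via plasminogen activation per viability signal from cell pellet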
T5 sequence (P10520 whole entry): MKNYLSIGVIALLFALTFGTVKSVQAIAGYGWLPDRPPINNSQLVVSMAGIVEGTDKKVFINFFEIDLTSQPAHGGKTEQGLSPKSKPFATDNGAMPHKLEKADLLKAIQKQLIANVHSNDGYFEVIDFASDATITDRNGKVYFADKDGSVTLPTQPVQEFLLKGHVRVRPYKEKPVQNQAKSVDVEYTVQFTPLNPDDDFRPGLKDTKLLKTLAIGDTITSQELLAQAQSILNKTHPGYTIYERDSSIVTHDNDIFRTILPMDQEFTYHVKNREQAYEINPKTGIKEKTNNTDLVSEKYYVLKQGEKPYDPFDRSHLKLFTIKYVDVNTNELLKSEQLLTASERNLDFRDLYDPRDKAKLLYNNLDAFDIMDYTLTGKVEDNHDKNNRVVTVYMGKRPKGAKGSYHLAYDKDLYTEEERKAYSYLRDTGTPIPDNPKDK

[10] = target: T6, DNA repair protein RAD52 homolog (Homo sapiens, UniProt P43351); format: functional, biochemical
T6 sequence (P43351 whole entry): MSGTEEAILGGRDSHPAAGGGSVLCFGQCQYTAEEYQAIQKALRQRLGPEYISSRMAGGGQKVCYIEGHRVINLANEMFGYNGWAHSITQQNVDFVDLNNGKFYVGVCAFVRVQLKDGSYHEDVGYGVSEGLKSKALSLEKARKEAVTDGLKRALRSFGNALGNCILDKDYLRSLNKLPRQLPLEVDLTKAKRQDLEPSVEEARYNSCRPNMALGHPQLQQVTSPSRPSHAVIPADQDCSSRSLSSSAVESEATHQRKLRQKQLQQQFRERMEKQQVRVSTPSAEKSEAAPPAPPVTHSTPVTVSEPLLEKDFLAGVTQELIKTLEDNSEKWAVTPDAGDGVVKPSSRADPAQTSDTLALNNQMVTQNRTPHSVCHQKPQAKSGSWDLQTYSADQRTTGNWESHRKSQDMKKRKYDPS

Nonstructural protein 1 = Nonstructural protein 1 (Influenza A virus, UniProt Q194T2); format: functional, Influenza A virus (A/California/07/2009(H1N1))
Nonstructural protein 1, sequence (Q194T2 whole entry): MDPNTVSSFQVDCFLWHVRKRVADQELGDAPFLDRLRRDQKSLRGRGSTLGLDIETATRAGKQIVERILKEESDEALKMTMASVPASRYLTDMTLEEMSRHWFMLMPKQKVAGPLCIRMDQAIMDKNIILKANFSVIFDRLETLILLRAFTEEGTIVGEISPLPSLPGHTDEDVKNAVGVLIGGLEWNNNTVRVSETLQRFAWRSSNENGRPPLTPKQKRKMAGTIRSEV

[11] = microbe, parasite or virus in culture; format: functional; details: Mycobacterium tuberculosis

Cytochrome P450 3A4, sequence (P08684 whole entry): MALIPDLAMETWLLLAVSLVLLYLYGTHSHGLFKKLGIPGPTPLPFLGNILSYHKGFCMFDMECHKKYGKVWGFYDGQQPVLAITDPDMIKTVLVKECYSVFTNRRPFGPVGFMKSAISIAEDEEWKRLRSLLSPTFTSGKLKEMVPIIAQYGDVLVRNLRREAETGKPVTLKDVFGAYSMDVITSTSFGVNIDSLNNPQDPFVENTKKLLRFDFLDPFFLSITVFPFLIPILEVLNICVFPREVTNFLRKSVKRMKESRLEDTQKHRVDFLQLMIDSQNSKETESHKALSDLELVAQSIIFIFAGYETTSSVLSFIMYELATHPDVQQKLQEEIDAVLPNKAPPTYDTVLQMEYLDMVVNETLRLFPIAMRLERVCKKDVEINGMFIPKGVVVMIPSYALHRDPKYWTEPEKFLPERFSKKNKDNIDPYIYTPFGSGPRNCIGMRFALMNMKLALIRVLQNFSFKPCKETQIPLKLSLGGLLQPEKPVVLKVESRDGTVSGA

Structure (SMILES): Cc1nc(NCc2ccccc2)c2nc(-c3ccccc3)n(CCN(C)C)c2n1
- AC50 (Cytochrome P450 3A4): 12.6 µM (inconclusive)

Structure (SMILES): C[C@@H]1C=C[C@](Cc2ccccc2)(C(=O)NCCCNc2ncc(C(F)(F)F)cc2Cl)N1C(=O)c1ccccc1
- AC50 (Cytochrome P450 3A4): 3.98 µM (inconclusive)

Structure (SMILES): CCOc1ccc(NC(=O)COC(=O)c2cccnc2)cc1
- IC50 (Leucine aminopeptidase): 27.4 µM (active)

Structure (SMILES): COc1ccc(OC)c(NC(=O)C2C3C=CC(C3)C2C(=O)NCc2ccccn2)c1 (stereo unspecified)
- IC50 (Aminopeptidase N): 89.5 µM (active)

Structure (SMILES): Cc1ccc(S(=O)(=O)NCC(=O)N(CC(=O)NCc2ccco2)Cc2ccc3c(c2)OCO3)cc1
- EC50 [1]: 3.4 µM (active)

Structure (SMILES): Cc1cc(S(=O)(=O)Nc2cccc(O)c2)c(C)s1
- IC50 (Leucine aminopeptidase): 14.6 µM (active)

Structure (SMILES): Cc1nc2c(-c3ccc(F)cc3)c(C)nn2c(C)c1CCC(=O)N1CCC(Cc2ccccc2)CC1
- EC50 [1]: 6.64 µM (active)

Structure (SMILES): CCn1c(SCCOc2ccc(Cl)cc2)nnc1-c1cccs1
- EC50 [1]: 5.63 µM (active)
- EC50 [2]: > 260 µM (inactive)

Structure (SMILES): COc1cc(/C=C2/C(=O)NN(c3cccc(F)c3)C2=O)ccc1OC(=O)c1ccco1
- IC50 (cells): 16.7 µM (active)
- EC50 [3]: > 112 µM (not active)
- EC50 [4]: > 112 µM (not active)

Structure (SMILES): Cc1cccc(N2CCN(Cc3ccc([N+](=O)[O-])o3)CC2)c1C
- IC50 (cells): 0.37 µM (active)
- EC50 [5]: 1.36 µM (active)
- EC50 [6]: > 60 µM (not active)

Structure (SMILES): COC(=O)[C@@H]1C[C@@]2(O)[C@@H](O)[C@@H](O)[C@@H](O)C[C@H]2N1CC1CCCCC1
- AC50 (Cytochrome P450 3A4): 12.6 µM (inconclusive)

Structure (SMILES): CCC1=C2CC[C@H]3C(=O)N(c4ccccc4)C(=O)[C@H]3[C@H]2[C@@]2(C)C(=O)N(CC(=O)OC)C(=O)N2C1=O
- AC50 (Cytochrome P450 3A4): 15.8 µM (inconclusive)

Structure (SMILES): O=C(Nc1cnc2ccccc2c1)C1COc2ccccc2O1 (stereo unspecified)
- EC50 [1]: 2.93 µM (active)
- EC50 [7]: < 0.1 µM (active)
- EC50 (H4): 37.6 µM (active)

Structure (SMILES): CN(C)CCCN=C(S)NCC(c1ccc(Cl)cc1Cl)c1c[nH]c2ccccc12 (stereo unspecified)
- IC50 [8]: > 20 µM (inactive)
- EC50 (Streptococcus): 15.4 µM (active)
- EC50 [9]: 5 µM (active)
- EC50 (Streptokinase A): > 150 µM (not active)
- AC50 [10]: 6.45 µM (active)
- IC50 (Nonstructural protein 1): 65.8 µM (active)

Structure (SMILES): Cc1ncc(N=Nc2ccccc2Cl)c(-c2ccccc2)n1
- IC50 (Nonstructural protein 1): 39.1 µM (active)

Structure (SMILES): COC(=O)COc1ccc2c(-c3ccc(OC)cc3)cc(=O)oc2c1
- IC50 (cells): 1.43 µM (active)

Structure (SMILES): Cc1onc(-c2ccccc2Cl)c1C(=O)Nc1ccc(F)c(F)c1
- EC50 [1]: 5.58 µM (active)
- EC50 [3]: > 112 µM (not active)
- EC50 [4]: > 112 µM (not active)

Structure (SMILES): Cc1c(N2C(=O)/C(=C/c3cccc4ccccc34)SC2=S)c(=O)n(-c2ccccc2)n1C
- IC50 (Nonstructural protein 1): > 100 µM (active)

Structure (SMILES): CCN(CC)c1ccc(C(=C2C=CC(=[N+](CC)CC)C=C2)c2ccc(S(=O)(=O)O)cc2S(=O)(=O)[O-])cc1
- IC50 (Nonstructural protein 1): 17.7 µM (active)

Structure (SMILES): CN1CCN(/N=C/c2c3ccccc3c(Cl)c3ccccc23)CC1
- CC50 [11]: 24 µM (active)
- IC50 (Nonstructural protein 1): 24.9 µM (active)

Structure (SMILES): Cc1nccn1CC(=O)N/N=C/c1ccccc1O
- IC50 (Nonstructural protein 1): 18.4 µM (active)
